Values joined by “and” are separate entries in the source; they are usually repeats but may differ in a detail not shown here. Equal values may be shown once. Read-outs that look alike come from different tables or passages of the source.
Tests used:
[1] = target: GFP-tagged CBP bromodomain (Homo sapiens, UniProt Q92793); assay: Microscale thermophoresis (MST); type: binding; details: for Bound (Fit Results): fitted MST response of bound state; for Bound (Fit Results) / Unbound (Fit Results): target clGFP-CBPBRD 5e-8; for Unbound (Fit Results): fitted MST response of unbound state
Procedure: MST experiments were performed in a Monolith NT.115 Pico instrument (NanoTemper Technologies) following published procedures. […] MST traces were recorded using standard parameters: 5 s MST power off, 30 s MST power on and 5 s MST power off. Measurements were taken at -1-0 s (cold region) and 10 s (hot region) and data were analyzed using the NTAnalysis software.

[2] = test system: HDMB03 (HDMBO3) group 3 medulloblastoma cells; assay: CellTiter-Glo dose-response growth assay; type: cell-based; details: HDMBO3 G3MB cell growth, read-out: IC50 (nM) HDMBO3
Procedure: CellTiter-Glo assay was performed as per the manufacturer’s instructions, at the noted timepoint after compound treatment or plating. For Kelly, TE617T, RhJT, NCIH2122, NCIH650 and 143B, 500 cells were plated in normal growth media per well in a 384-well plate (Corning). HDMB03 and MB002 cells were plated in growth media at 500 cells/well in a 384-well plate. […] Cells were incubated for the noted timepoints prior to performing CellTiter-Glo assay as per the manufacturer’s instructions, and reading plates on an Envision 2104 microplate reader.

[3] = target: T1, BRD4-BD1 (BRD4-1) (Homo sapiens, UniProt O60885); assay: Differential scanning fluorimetry (DSF) thermal shift; type: binding; details: DSF; for ∆Tm (°C) BRD4-1: 5 μM protein, 100 μM compound, three independent experiments, average ± SD; for ΔTm (°C) BRD4-BD1: Figure 3A
T1 construct: BRD4-BD1 (residues 44-168); 6xHis (cleaved yes); host or cells: E. coli BL21 (DE3) RIL
Procedure: (§1) At OD600 of 0.6, the culture was cooled down to 18 °C and induced with 0.1 mM IPTG. After 18 h growth, the culture was harvested by centrifugation at 6000 × g for 25 min and stored at -80 °C. Harvested cell pellets were re-suspended in 50 mM Na/K phosphate buffer (pH 7.4) containing 100 mM NaCl, 40 mM imidazole, 0.01% w/v lysozyme and 0.01% v/v Triton X-100 at 4 °C for 1 h, subjected to sonication and the lysate was clarified by centrifugation (30,000 × g for 45 min at 4 °C). Proteins were purified by FPLC at 4 °C using columns and chromatography materials from GE Healthcare. […] Proteins were purified to homogeneity by size exclusion chromatography using Superdex 75 equilibrated with elution buffer (50 mM HEPES pH 7.5, 100 mM NaCl, 2 mM DTT). All BRDs eluted as monomeric protein and were of crystallization grade quality (>95% purity as judged by SDS-PAGE). Pool fractions were combined, concentrated to 10–12 mg/ml, and aliquots were flash-frozen in liquid N2 and stored at −80 °C.
(§2) DSF experiments were performed with an Applied Biosystem StepOnePlus real-time PCR system (Thermo Fisher Scientific) using 96-well format plates, assayed in quadruplicate. For thermal shift determination, 5 μM protein was mixed with 100 μM compound in 50 mM HEPES, pH 7.5, 150 mM NaCl, 2 mM DTT, 2% DMSO, 5X SYPRO Orange (Thermo Fisher Scientific) in 20 μL reaction volumes. Reaction mixtures were heated from 25 to 95 °C at 1 °C/min with fluorescence readings every 0.5 °C at 610 nm. The observed thermal shift (ΔTm) was recorded as the difference between the Tm of sample and DMSO reference wells.

[4] = target: T2, EP300 bromodomain (Homo sapiens, UniProt Q09472); assay: as above; type: binding; details: DSF; for ∆Tm (°C) EP300: 5 μM protein, 100 μM compound, three independent experiments, average ± SD; for ΔTm (°C) EP300: Figure 3B
T2 construct: 6xHis (cleaved yes); host or cells: E. coli BL21 (DE3) RIL
T2 sequence (Q09472 1048-1161): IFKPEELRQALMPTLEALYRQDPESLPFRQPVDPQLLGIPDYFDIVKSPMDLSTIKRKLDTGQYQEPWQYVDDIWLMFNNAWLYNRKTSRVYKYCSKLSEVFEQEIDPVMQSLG
Procedure: as §1, §2

[5] = test system: CBP bromodomain; assay: as above; type: binding; details: ΔTm (CBP)/ΔTm(BRD4)
Procedure: as §1, with “After” for “At OD600 of 0.6, the culture was cooled down to 18 °C and induced with 0.1 mM IPTG. After”, “All BRDs eluted as monomeric protein and were of crystallization grade quality (>95% purity as judged by SDS-PAGE).” left out
(§3) DSF experiments were performed with an Applied Biosystem StepOnePlus real-time PCR system (Thermo Fisher Scientific) using 96-well format plates, assayed in quadruplicate. For thermal shift determination, 5 μM protein was mixed with 100 μM compound in 50 mM HEPES, pH 7.5, 150 mM NaCl, 2 mM DTT, 2% DMSO, 5X SYPRO Orange (Thermo Fisher Scientific) in 20 μL reaction volumes.

[6] = target: T3, CBP bromodomain (Homo sapiens, UniProt Q92793); assay: as above; type: binding; details: for ∆Tm (°C) CBP / ΔTm (°C) CBP: DSF; for ∆Tm (°C) CBP: 5 μM protein, 100 μM compound, three independent experiments, average ± SD; for DSF ΔTm (°C): Figure 3C, DSF (values equal CBP column)
T3 construct: CBP (residues 1081-1197); 6xHis (cleaved yes); host or cells: E. coli BL21 (DE3) RIL
Procedure: as §1, with “After” for “At OD600 of 0.6, the culture was cooled down to 18 °C and induced with 0.1 mM IPTG. After”, “All BRDs eluted as monomeric protein and were of crystallization grade quality (>95% purity as judged by SDS-PAGE).” left out
as §3

[7] = single replicate run, listed as iCBP-4
[8] = three independent MST experiments, average ± SD, read-out: Kd (nM) CBP
[9] = single replicate run, listed as iCBP-1

T3 sequence (Q92793 1081-1197): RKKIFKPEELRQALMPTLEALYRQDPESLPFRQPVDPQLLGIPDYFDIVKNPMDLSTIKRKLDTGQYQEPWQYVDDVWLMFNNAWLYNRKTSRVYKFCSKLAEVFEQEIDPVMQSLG
GFP-tagged CBP bromodomain, sequence (Q92793 1085-1192 limits assumed): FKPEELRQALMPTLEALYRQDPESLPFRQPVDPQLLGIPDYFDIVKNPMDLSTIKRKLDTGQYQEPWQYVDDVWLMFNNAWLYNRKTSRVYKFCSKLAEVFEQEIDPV

COC1CCC(n2c(C3CCCC(=O)N3c3cc(C(F)(F)F)cc(C(F)(F)F)c3)nc3cc(-c4c(C)noc4C)ccc32)CC1 (centres unmarked) [Compound 4]
Kd ([1]; Figure 3C, MST, read-out: MST Kd): 116 nM
Response (Dose Response Curve) ([1]; MST raw response, Dose 1.52588e-10, single replicate run, listed as iCBP-4): 892.093 and 891.258 and 891.615
Response (Dose Response Curve (Outliers)) ([1]; MST raw response, Dose 3.05176e-10, point marked as outlier and left out of the fit): 895.82
Response (Dose Response Curve) ([1]; MST raw response, Dose 3.05176e-10, single replicate run, listed as iCBP-4): 892.272 and 892.058
Response (Dose Response Curve) ([1]; MST raw response, Dose 6.10352e-10, single replicate run, listed as iCBP-4): 892.269 and 892.744 and 892.22
Response (Dose Response Curve) ([1]; MST raw response, Dose 1.2207e-9, single replicate run, listed as iCBP-4): 892.399 and 891.675 and 892.288
Response (Dose Response Curve) ([1]; MST raw response, Dose 2.44141e-9, single replicate run, listed as iCBP-4): 891.725 and 891.585 and 891.994
Response (Dose Response Curve) ([1]; MST raw response, Dose 4.88281e-9, single replicate run, listed as iCBP-4): 891.567 and 892.575 and 891.165
Response (Dose Response Curve) ([1]; MST raw response, Dose 9.76563e-9, single replicate run, listed as iCBP-4): 891.493 and 891.567 and 891.238
Response (Dose Response Curve) ([1]; MST raw response, Dose 1.95313e-8, single replicate run, listed as iCBP-4): 891.688 and 891.424 and 891.76
Response (Dose Response Curve) ([1]; MST raw response, Dose 3.90625e-8, single replicate run, listed as iCBP-4): 892.161 and 891.262 and 889.541
Response (Dose Response Curve) ([1]; MST raw response, Dose 7.8125e-8, single replicate run, listed as iCBP-4): 890.263 and 890.555 and 890.434
Response (Dose Response Curve) ([1]; MST raw response, Dose 1.5625e-7, single replicate run, listed as iCBP-4): 890.147 and 890.553 and 889.395
Response (Dose Response Curve) ([1]; MST raw response, Dose 3.125e-7, single replicate run, listed as iCBP-4): 888.926 and 888.984 and 889.107
Response (Dose Response Curve) ([1]; MST raw response, Dose 6.25e-7, single replicate run, listed as iCBP-4): 888.767 and 888.447 and 889.182
Response (Dose Response Curve) ([1]; MST raw response, Dose 1.25e-6, single replicate run, listed as iCBP-4): 887.998 and 889.672 and 887.288
Response (Dose Response Curve) ([1]; MST raw response, Dose 2.5e-6, single replicate run, listed as iCBP-4): 887.993 and 886.376 and 888.472
Response (Dose Response Curve) ([1]; MST raw response, Dose 5e-6, single replicate run, listed as iCBP-4): 887.809 and 888.569 and 888.97
Kd ([1]; MST, single replicate run, target clGFP-CBPBRD, TargetConcentration 5e-8, MST-Power Medium, unit inferred, read-out: Kd (Fit Results, Fit Model: Kd)): 142 nM and 167 nM and 39.1 nM
Bound (Fit Results) [1, 7]: 887.684 and 887.776 and 888.434
Unbound (Fit Results) [1, 7]: 892.098 and 891.946 and 891.879
loss of binding affinity (CBP) ([1]; relative to CCS1477): ~ 40 fold
Kd [1, 8]: 116 ± 68 nM
IC50 ([2]; Homo sapiens, HD-MB03): 271 ± 62 nM
∆Tm (°C) BRD4-1 [3]: 2.1 ± 0.96 °C
ΔTm (°C) BRD4-BD1 [3]: 2.1 °C
∆Tm (°C) EP300 [4]: 9.2 ± 1.5 °C
ΔTm (°C) EP300 [4]: 9.2 °C
Ratio CBP/BRD4 of ∆Tm [5]: 4.7
∆Tm (°C) CBP [6]: 9.9 ± 1.02 °C
ΔTm (°C) CBP ([6]; Figure 3A, CBP bromodomain): 9.9 °C
ΔTm (°C) CBP ([6]; Figure 3B, CBP): 9.9 °C
DSF ΔTm (°C) [6]: 9.9 °C

COC1CCC(n2c(C3CCCC(=O)N3c3cccc(C(F)F)c3)nc3cc(-c4c(C)noc4C)ccc32)CC1 (centres unmarked) [Compound 3]
Response (Dose Response Curve) ([1]; MST raw response, Dose 7.6294e-11, single replicate run, listed as iCBP-1): 853.223 and 857.66 and 855.66
Response (Dose Response Curve) ([1]; MST raw response, Dose 1.52588e-10, single replicate run, listed as iCBP-1): 855.736 and 856.23 and 855.826
Response (Dose Response Curve) ([1]; MST raw response, Dose 3.05176e-10, single replicate run, listed as iCBP-1): 853.445 and 855.178 and 855.494
Response (Dose Response Curve) ([1]; MST raw response, Dose 6.10352e-10, single replicate run, listed as iCBP-1): 856.427 and 856.757 and 853.917
Response (Dose Response Curve) ([1]; MST raw response, Dose 1.2207e-9, single replicate run, listed as iCBP-1): 856.018 and 857.281 and 855.418
Response (Dose Response Curve) ([1]; MST raw response, Dose 2.44141e-9, single replicate run, listed as iCBP-1): 854.643 and 857.895 and 854.619
Response (Dose Response Curve) ([1]; MST raw response, Dose 4.88281e-9, single replicate run, listed as iCBP-1): 855.403 and 855.962 and 856.044
Response (Dose Response Curve) ([1]; MST raw response, Dose 9.76563e-9, single replicate run, listed as iCBP-1): 854.71 and 855.519 and 854.572
Response (Dose Response Curve) ([1]; MST raw response, Dose 1.95313e-8, single replicate run, listed as iCBP-1): 854.478 and 856.32 and 852.68
Response (Dose Response Curve) ([1]; MST raw response, Dose 3.90625e-8, single replicate run, listed as iCBP-1): 853.805 and 853.804 and 852.557
Response (Dose Response Curve) ([1]; MST raw response, Dose 7.8125e-8, single replicate run, listed as iCBP-1): 851.041 and 853.265 and 851.047
Response (Dose Response Curve) ([1]; MST raw response, Dose 1.5625e-7, single replicate run, listed as iCBP-1): 849.783 and 852.179 and 850.016
Response (Dose Response Curve) ([1]; MST raw response, Dose 3.125e-7, single replicate run, listed as iCBP-1): 847.514 and 851.349 and 849.816
Response (Dose Response Curve) ([1]; MST raw response, Dose 6.25e-7, single replicate run, listed as iCBP-1): 850.56 and 852.488 and 847.121
Response (Dose Response Curve) ([1]; MST raw response, Dose 1.25e-6, single replicate run, listed as iCBP-1): 851.062 and 851.994 and 849.472
Response (Dose Response Curve) ([1]; MST raw response, Dose 2.5e-6, single replicate run, listed as iCBP-1): 852.183 and 853.073 and 851.642
Kd ([1]; MST, single replicate run, target clGFP-CBPBRD, TargetConcentration 5e-8, MST-Power Medium, unit inferred, listed as iCBP-1, read-out: Kd (Fit Results, Fit Model: Kd)): 11.6 nM and 7.49 nM and 11.5 nM
Bound (Fit Results) [1, 9]: 850.224 and 852.177 and 849.456
Unbound (Fit Results) [1, 9]: 855.236 and 856.83 and 855.351
Kd [1, 8]: 12.1 ± 4.9 nM
IC50 [2]: 156 ± 63 nM
∆Tm (°C) BRD4-1 [3]: 5.6 ± 0.18 °C
∆Tm (°C) BRD4-1 ([3]; listed as iCBP-1): 5.6 °C
ΔTm (°C) BRD4-BD1 [3]: 5.6 °C
∆Tm (°C) EP300 [4]: 15.2 ± 0.43 °C
ΔTm (°C) EP300 [4]: 15.2 °C
Ratio CBP/BRD4 of ∆Tm [5]: 2.8
∆Tm (°C) CBP [6]: 15.7 ± 0.13 °C
∆Tm (°C) CBP ([6]; listed as iCBP-1): 15.7 °C
ΔTm (°C) CBP ([6]; Figure 3A, CBP bromodomain): 15.7 °C
ΔTm (°C) CBP ([6]; Figure 3B, CBP): 15.7 °C
DSF ΔTm (°C) [6]: 15.7 °C

From paper PMC11045757, “Group 3 medulloblastoma transcriptional networks collapse under domain specific EP300/CBP inhibition” (Nature Communications, 2024)
